Where a name gives a salt, the structure may show the parent alone. Read-outs that look alike come from different tables or passages of the source.
Biological target: T1, Human Factor D (Homo sapiens, UniProt P00746)
T1 construct: purified from human serum; purchased Complement Technology, Inc; host or cells: human serum
Experiment: Human Factor D assay (Example 8)
Assay type: biochemical
Protocol: Human Factor D (purified from human serum, Complement Technology, Inc.) at 80 nM final concentration was incubated with test compound at various concentrations for 5 minutes at room temperature in 50 mM Tris, 1M NaCl, pH 7.5. A synthetic substrate Z-L-Lys-SBzl and DTNB (Ellman's reagent) are added to final concentrations of 100 μM each. […] IC50 values are calculated by nonlinear regression of complement Factor D reaction rates as a function of test compound concentration.

[1] = Table 3, Human Factor D 80 nM, substrate Z-L-Lys-SBzl, read-out: IC50 (Stars)
[2] = Table 1, Human Factor D 80 nM, substrate Z-L-Lys-SBzl, read-out: IC50
[3] = Table 2, Human Factor D 80 nM, substrate Z-L-Lys-SBzl, read-out: IC50

T1 sequence (P00746 26-253): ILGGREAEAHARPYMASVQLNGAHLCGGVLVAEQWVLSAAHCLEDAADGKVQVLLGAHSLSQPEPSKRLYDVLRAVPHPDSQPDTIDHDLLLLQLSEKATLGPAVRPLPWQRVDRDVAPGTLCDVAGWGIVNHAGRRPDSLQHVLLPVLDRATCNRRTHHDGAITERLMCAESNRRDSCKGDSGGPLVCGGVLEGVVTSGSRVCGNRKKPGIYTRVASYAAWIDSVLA

Compound | IC50 [1] [nM] | IC50 [2] [nM] | further results
CC(=O)c1nn(CC(=O)N2C[C@H](F)C[C@H]2C(=O)Nc2cccc(Br)n2)c2cnc(Cl)cc12 [Compound 399, (2S,4R)-1-(2-(3-Acetyl-5-chloro-1H-pyrazolo[3,4-c]pyridin-1-yl)acetyl)-N-(6-bromopyridin-2-yl)-4-fluoropyrrolidine-2-carboxamide] | < 1000 |  | 
O=C(NCc1cccc(Cl)c1F)[C@@H]1C[C@@H](F)CN1C(=O)Cn1cc([N+](=O)[O-])c2ccccc21 [Compound 46, (2S,4R)-N-(3-chloro-2-fluorobenzyl)-4-fluoro-1-(2-(3-nitro-1H-indol-1-yl)acetyl)pyrrolidine-2-carboxamide] |  | < 1000 | 
CC(=O)c1nn(CC(=O)N2C[C@H](F)C[C@H]2C(=O)Nc2cccc(-c3ccc4c(c3)NCCC4)c2F)c2ccccc12 [Compound 450, (2S,4R)-1-(2-(3-Acetyl-1H-indazol-1-yl)acetyl)-4-fluoro-N-(2-fluoro-3-(1,2,3,4-tetrahydroquinolin-7-yl)phenyl)pyrrolidine-2-carboxamide] | < 1000 |  | 
NC(=O)c1nn(CC(=O)N2C[C@H](F)C[C@H]2C(=O)Nc2cccc(-c3cc(F)c(F)cc3Cl)c2F)c2cnccc12 [Compound 83, 1-(2-((2S,4R)-2-(2′-chloro-2,4′,5′-trifluorobiphenyl-3-ylcarbamoyl)-4-fluoropyrrolidin-1-yl)-2-oxoethyl)-1H-pyrazolo[3,4-c]pyridine-3-carboxamide] |  | < 1000 | 
CC(C)(C)OC(=O)N[C@@H](Cc1c[nH]c2ccccc12)C(=O)N1C[C@H](F)C[C@H]1C(=O)NCc1cccc(Cl)c1F [Compound 38, tert-butyl (S)-1-((2S,4R)-2-(3-chloro-2-fluorobenzylcarbamoyl)-4-fluoropyrrolidin-1-yl)-3-(1H-indol-3-yl)-1-oxopropan-2-ylcarbamate] |  | > 10000 | 
NC(=O)c1nn(CC(=O)N2C[C@H](F)C[C@H]2C(=O)Nc2cccc(-c3ccc4c(c3Cl)NCCN4)c2F)c2ccccc12 [Compound 443, 1-(2-((2S,4R)-2-((3-(5-Chloro-1,2,3,4-tetrahydroquinoxalin-6-yl)-2-fluorophenyl)carbamoyl)-4-fluoropyrrolidin-1-yl)-2-oxoethyl)-1H-indazole-3-carboxamide] | < 1000 |  | 
O=C(NCc1cccc(Cl)c1F)[C@@H]1C[C@@H](F)CN1C(=O)Cn1c2c(c3ccccc31)CCNC2 [Compound 68, (2S,4R)-N-(3-chloro-2-fluorobenzyl)-1-(2-(3,4-dihydro-1H-pyrido[3,4-b]indol-9(2H)-yl)acetyl)-4-fluoropyrrolidine-2-carboxamide] |  | > 10000 | 
NC(=O)c1nn(CC(=O)N2C[C@H](F)C[C@H]2C(=O)Nc2cccc(-c3cc(OC(F)(F)F)ccc3Cl)c2F)c2ccccc12 [Compound 120, 1-(2-((2S,4R)-2-(2′-chloro-2-fluoro-5′-(trifluoromethoxy)biphenyl-3-ylcarbamoyl)-4-fluoropyrrolidin-1-yl)-2-oxoethyl)-1H-indazole-3-carboxamide] |  |  | IC50: < 1000 nM
NC(=O)c1nn(CC(=O)N2C(=O)CC[C@H]2C(=O)Nc2cccc(-c3ccccc3Cl)c2F)c2ccccc12 [Compound 260, (S)-1-(2-(2-(2′-Chloro-2-fluorobiphenyl-3-ylcarbamoyl)-5-oxopyrrolidin-1-yl)-2-oxoethyl)-1H-indazole-3-carboxamide] | < 1000 |  | 
CC(=O)c1nn(CC(=O)N2C[C@H](F)C[C@H]2C(=O)Nc2cccc(Br)n2)c2ccc(O)cc12 [Compound 395, (2S,4R)-1-(2-(3-acetyl-5-hydroxy-1H-indazol-1-yl)acetyl)-N-(6-bromopyridin-2-yl)-4-fluoropyrrolidine-2-carboxamide] | < 1000 |  | 
CC(=O)Nc1cn(CC(=O)N2C[C@H](F)C[C@H]2C(=O)NCc2cccc(Cl)c2F)c2ccccc12 [Compound 47, (2S,4R)-1-(2-(3-acetamido-1H-indol-1-yl)acetyl)-N-(3-chloro-2-fluorobenzyl)-4-fluoropyrrolidine-2-carboxamide] |  | < 1000 | 
CCOC(=O)CC(=O)N1CCc2c(n(CC(=O)N3C[C@H](F)C[C@H]3C(=O)NCc3cccc(Cl)c3F)c3ccccc23)C1 [Compound 70, ethyl 3-(9-(2-((2S,4R)-2-(3-chloro-2-fluorobenzylcarbamoyl)-4-fluoropyrrolidin-1-yl)-2-oxoethyl)-3,4-dihydro-1H-pyrido[3,4-b]indol-2(9H)-yl)-3-oxopropanoate] |  | > 10000 | 
N#Cc1cccc2c(C(N)=O)nn(CC(=O)N3C[C@H](F)C[C@H]3C(=O)Nc3cccc(-c4ccccc4Cl)c3F)c12 [Compound 111, 1-(2-((2S,4R)-2-((2′-Chloro-2-fluoro-[1,1′-biphenyl]-3-yl)carbamoyl)-4-fluoropyrrolidin-1-yl)-2-oxoethyl)-7-cyano-1H-indazole-3-carboxamide] |  |  | IC50: < 1000 nM
CC(=O)c1cn(CC(=O)N2[C@H](C(=O)NCc3cccc(Cl)c3F)C[C@@H]3CCCC[C@@H]32)c2cc(O)ccc12 [Compound 35, (2S,3aS,7aS)-1-(2-(3-acetyl-6-hydroxy-1H-indol-1-yl)acetyl)-N-(3-chloro-2-fluorobenzyl)octa-hydro-1H-indole-2-carboxamide] |  |  | IC50: < 1000 nM
CC(=O)c1cn(CC(=O)N2C[C@H](F)C[C@H]2C(=O)Nc2cccc(SC(F)(F)F)c2)c2cc(O)ccc12 [Compound 48, (2S,4R)-1-(2-(3-acetyl-6-hydroxy-1H-indol-1-yl)acetyl)-4-fluoro-N-(3-(trifluoromethylthio)phenyl)pyrrolidine-2-carboxamide] |  |  | IC50: < 1000 nM
NS(=O)(=O)c1cn(CC(=O)N2C[C@H](F)C[C@H]2C(=O)NCc2cccc(Cl)c2F)c2ccccc12 [Compound 76, (2S,4R)-N-(3-chloro-2-fluorobenzyl)-4-fluoro-1-(2-(3-sulfamoyl-1H-indol-1-yl)acetyl)pyrrolidine-2-carboxamide] |  | < 1000 | 
CC(=O)c1nn(CC(=O)N2C[C@H](F)C[C@H]2C(=O)Nc2cccc(-c3ccc4c(c3)NCCN4)c2F)c2ccccc12 [Compound 436] | < 1000 |  | 
CO[C@H]1[C@@H](C(=O)Nc2cccc(-c3ccccc3Cl)c2F)N(C(=O)Cn2nc(C(N)=O)c3ccccc32)C[C@@H]1F [Compound 289, 1-(2-((2S,3S,4S)-2-(2′-Chloro-2-fluorobiphenyl-3-ylcarbamoyl)-4-fluoro-3-methoxypyrrolidin-1-yl)-2-oxoethyl)-1H-indazole-3-carboxamide] | < 1000 |  | 
NC(=O)c1nn(CC(=O)N2C[C@H](F)C[C@H]2C(=O)Nc2cccc(-c3cc(Cl)c4nc[nH]c4c3)c2F)c2ccccc12 [Compound 458, 1-(2-((2S,4R)-2-(3-(4-chloro-1H-benzo[d]imidazol-6-yl)-2-fluorophenylcarb-amoyl)-4-fluoropyrrolidin-1-yl)-2-oxoethyl)-1H-indazole-3-carboxamide] | < 1000 |  | 
CC(=O)Nc1ccc(C(=O)N2C[C@H](F)C[C@H]2C(=O)NCc2cccc(Cl)c2F)cn1 [Compound 51, (2S,4R)-1-(6-acetamidonicotinoyl)-N-(3-chloro-2-fluorobenzyl)-4-fluoropyrrolidine-2-carboxamide] |  | > 10000 | 
CC(=O)n1cc(NC(=O)[C@H]2CCCN2C(=O)Nc2cccc(OC(F)(F)F)c2F)c2ccccc21 [Compound 16, (R)-N2-(1-acetyl-1H-indol-3-yl)-N1-(2-fluoro-3-(trifluoromethoxy)phenyl)pyrrolidine-1,2-dicarboxamide] |  | > 10000 | 
CC(=O)c1nn(CC(=O)N2C[C@H](F)C[C@H]2C(=O)Nc2cccc(-c3ccc4c(c3Cl)NCCN4)c2F)c2ccccc12 [Compound 445, (2S,4R)-1-(2-(3-Acetyl-1H-indazol-1-yl)acetyl)-N-(3-(5-chloro-1,2,3,4-tetrahydroquinoxalin-6-yl)-2-fluorophenyl)-4-fluoropyrrolidine-2-carboxamide] | < 1000 |  | 
CC(=O)c1nn(CC(=O)N2C[C@H](F)C[C@H]2C(=O)Nc2cccc(-c3ccc4[nH]cnc4c3Cl)c2F)c2ccccc12 [Compound 461, (2S,4R)-1-(2-(3-acetyl-1H-indazol-1-yl)acetyl)-N-(3-(4-chloro-1H-benzo[d]imidazol-5-yl)-2-fluorophenyl)-4-fluoropyrrolidin-2-carboxamide] | < 1000 |  | 
NC(=O)c1nn(CC(=O)N2C[C@H](F)C[C@H]2C(=O)Nc2cccc(-c3ccccc3Cl)c2F)c2cc(C(=O)O)sc12 [Compound 132, 3-carbamoyl-1-(2-((2S,4R)-2-(2′-chloro-2-fluorobiphenyl-3-ylcarbamoyl)-4-fluoropyrrolidin-1-yl)-2-oxoethyl)-1H-thieno[3,2-c]pyrazole-5-carboxylic acid] |  |  | IC50 [3]: < 1000 nM
NCC(=O)c1ccc(Cl)c(-c2cccc(NC(=O)[C@@H]3C[C@@H](F)CN3C(=O)Cn3nc(C(N)=O)c4ccccc43)c2F)c1 [Compound 140, 1-(2-((2S,4R)-2-((2′-Chloro-2-fluoro-5′-glycyl-[1,1′-biphenyl]-3-yl)carbamoyl)-4-fluoropyrrolidin-1-yl)-2-oxoethyl)-1H-indazole-3-carboxamide hydrochloride] |  |  | IC50 [3]: < 1000 nM
NC(=O)c1nn(CC(=O)N2CC[C@@H](O)[C@H]2C(=O)Nc2cccc(-c3ccccc3Cl)c2F)c2ccccc12 [Compound 374] | < 1000 |  | 
CC(=O)c1nc(CC(=O)N2C[C@H](F)C[C@H]2C(=O)Nc2cccc(-c3ccccc3Cl)c2F)n2ccccc12 [Compound 372, (2S,4R)-1-(2-(1-Acetylimidazo[1,5-a]pyridin-3-yl)acetyl)-N-(2′-chloro-2-fluoro-[1,1′-biphenyl]-3-yl)-4-fluoropyrrolidine-2-carboxamide] | < 1000 |  | 
NC(=O)c1nn(CC(=O)N2C[C@H](F)C[C@H]2C(=O)Nc2cccc(Br)n2)c2ccsc12 [Compound 106, 1-(2-((2S,4R)-2-((6-Bromopyridin-2-yl)carbamoyl)-4-fluoropyrrolidin-1-yl)-2-oxoethyl)-1H-thieno[3,2-c]pyrazole-3-carboxamide] |  | < 1000 | 

Source: patent US10092584B2 (Achillion Pharmaceuticals, Inc., priority 2015, dated 2018)
